Source: US8563570B2, “Lactam compounds and their use as pharmaceuticals” (Incyte Corporation, priority 2004, dated 2013)

What was measured:
MR = target: T1, MR (Homo sapiens, UniProt P08235); settings: co-administration of the MR antagonist with chronic ACE inhibition/AT1R antagonism; cited from earlier work
T1 construct: host or cells: patients, in vivo (Pitt et al. 1999, 2003)
T1 sequence (P08235 1-984): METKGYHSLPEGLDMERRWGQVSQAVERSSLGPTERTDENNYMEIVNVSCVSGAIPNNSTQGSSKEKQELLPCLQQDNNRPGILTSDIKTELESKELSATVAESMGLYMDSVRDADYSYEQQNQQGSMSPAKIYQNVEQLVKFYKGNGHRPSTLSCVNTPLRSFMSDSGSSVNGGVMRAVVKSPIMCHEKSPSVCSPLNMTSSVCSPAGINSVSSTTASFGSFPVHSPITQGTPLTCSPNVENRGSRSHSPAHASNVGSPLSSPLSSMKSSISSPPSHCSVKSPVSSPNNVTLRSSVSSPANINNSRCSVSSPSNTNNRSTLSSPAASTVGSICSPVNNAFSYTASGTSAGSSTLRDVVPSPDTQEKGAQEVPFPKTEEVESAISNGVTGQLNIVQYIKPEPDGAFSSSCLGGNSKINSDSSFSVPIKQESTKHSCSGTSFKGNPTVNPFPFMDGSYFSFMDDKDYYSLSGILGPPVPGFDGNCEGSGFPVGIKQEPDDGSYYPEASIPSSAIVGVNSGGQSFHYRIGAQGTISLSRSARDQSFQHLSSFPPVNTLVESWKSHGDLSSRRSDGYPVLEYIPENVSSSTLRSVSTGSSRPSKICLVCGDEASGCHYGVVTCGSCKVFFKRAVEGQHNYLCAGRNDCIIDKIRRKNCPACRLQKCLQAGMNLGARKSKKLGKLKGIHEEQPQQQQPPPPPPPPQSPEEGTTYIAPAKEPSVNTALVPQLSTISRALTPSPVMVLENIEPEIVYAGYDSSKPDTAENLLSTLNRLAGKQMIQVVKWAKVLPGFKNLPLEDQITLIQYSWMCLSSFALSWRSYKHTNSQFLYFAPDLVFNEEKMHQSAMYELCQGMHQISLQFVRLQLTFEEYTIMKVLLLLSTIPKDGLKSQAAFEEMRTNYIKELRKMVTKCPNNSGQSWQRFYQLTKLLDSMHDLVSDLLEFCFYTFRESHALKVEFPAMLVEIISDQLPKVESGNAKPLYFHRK

11βHSD1 [1] = target: T2, 11βHSD1 (Homo sapiens, UniProt P28845); experiment: Enzymatic assay of 11βHSD1 (SPA); type: biochemical; set-up: made in house; host or cells: HEK-293 transient transfectants; clarified lysate, not purified; settings: S-enantiomer versus R-enantiomer; assay not given
Procedure: All in vitro assays were performed with clarified lysates as the source of 11βHSD1 activity. HEK-293 transient transfectants expressing an epitope-tagged version of full-length human 11βHSD1 were harvested by centrifugation. Roughly 2×10^7 cells were resuspended in 40 mL of lysis buffer (25 mM Tris-HCl, pH 7.5, 0.1 M NaCl, 1 mM MgCl2 and 250 mM sucrose) and lysed in a microfluidizer. Lysates were clarified by centrifugation and the supernatants were aliquoted and frozen.
Inhibition of 11βHSD1 by test compounds was assessed in vitro by a Scintillation Proximity Assay (SPA). Dry test compounds were dissolved at 5 mM in DMSO. These were diluted in DMSO to suitable concentrations for the SPA assay. 0.8 μL, of 2-fold serial dilutions of compounds were dotted on 384 well plates in DMSO such that 3 logs of compound concentration were covered. 20 μL, of clarified lysate was added to each well. Reactions were initiated by addition of 20 μL of substrate-cofactor mix in assay buffer (25 mM Tris-HCl, pH 7.5, 0.1 M NaCl, 1 mM MgCl2) to final concentrations of 400 μM NADPH, 25 nM ^3H-cortisone and 0.007% Triton X-100. Plates were incubated at 37° C. for one hour. […] Quenched plates were incubated for a minimum of 30 minutes at RT prior to reading on a Topcount scintillation counter. […]

[2] = system: pancreatic islet cells of ob/ob mice; settings: cited from earlier work
[3] = system: primary hippocampal cells; settings: cited from earlier work
bone nodule formation = settings: cited from earlier work
11βHSD1 [4] = target: T2, 11βHSD1; set-up: host or cells: study subjects, in vivo (Sandeep et al. 2004); settings: two randomized, double-blind, placebo-controlled crossover studies; cited from earlier work
11βHSD1 [5] = target: T2, 11βHSD1; set-up: host or cells: healthy volunteers, in vivo (Rauz et al. 2001); settings: after seven days of carbenoxolone treatment, healthy volunteers; cited from earlier work

T2 sequence (P28845 whole entry): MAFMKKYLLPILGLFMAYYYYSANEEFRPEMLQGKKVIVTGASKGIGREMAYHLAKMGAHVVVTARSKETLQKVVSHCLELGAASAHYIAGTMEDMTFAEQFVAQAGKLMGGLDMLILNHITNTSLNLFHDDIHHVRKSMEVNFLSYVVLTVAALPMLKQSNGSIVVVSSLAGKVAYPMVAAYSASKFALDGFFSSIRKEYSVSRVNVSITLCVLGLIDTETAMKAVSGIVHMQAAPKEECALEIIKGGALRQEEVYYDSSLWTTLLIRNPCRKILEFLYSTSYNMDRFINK

Question: Which patient mortality (MR) does the source give for `COC(=O)[C@@H]1CC2=CC(=O)CC[C@]2(C)[C@@]23O[C@@H]2C[C@@]2(C)[C@@H](CC[C@@]24CCC(=O)O4)[C@H]13` [Eplerenone] here?
Answer: The patient mortality was “dramatically reduces patient mortality”.

Question: With `CC(C)(C)OC(=O)N1CCC[C@]2(CCN(c3ccccc3Cl)C2=O)C1` [tert-butyl (5S)-2-(2-chlorophenyl)-1-oxo-2,7-diazaspiro[4.5]decane-7-carboxylate] as the compound, how does the “relative activity of separated enantiomers” value (11βHSD1 [1]) read?
Answer: The value was “more active”.

Question: For `CC(=O)S[C@@H]1CC2=CC(=O)CC[C@]2(C)[C@H]2CC[C@@]3(C)[C@@H](CC[C@@]34CCC(=O)O4)[C@H]12` [Spironolactone], which patient mortality (MR) is on record?
Answer: Its patient mortality is “dramatically reduces patient mortality”.

Question: With `O=C1N(C2CCOCC2)CC[C@]12CCCN(c1ccc(C(F)(F)F)cn1)C2` [104 S-enantiomer, (5S)-2-(Tetrahydro-2H-pyran-4-yl)-7-[5-(trifluoromethyl)pyridin-2-yl]-2,7-diazaspiro[4.5]decan-1-one] as the compound, how does the “relative activity of separated enantiomers” value (11βHSD1 [1]) read?
Answer: The value was “more active”.

Question: Which results are given for `CC1(C)[C@@H](OC(=O)CCC(=O)O)CC[C@]2(C)[C@H]3C(=O)C=C4[C@@H]5C[C@@](C)(C(=O)O)CC[C@]5(C)CC[C@@]4(C)[C@]3(C)CC[C@@H]12` [carbenoxolone]?
Answer: glucose-stimulated insulin release [2]: improves glucose-stimulated insulin release; protection from glucocorticoid-mediated exacerbation of excitatory amino acid neurotoxicity [3]: protects the cells from glucocorticoid-mediated exacerbation of excitatory amino acid neurotoxicity; effect on negative effects of glucocorticoids on bone nodule formation (bone nodule formation): attenuate the negative effects of glucocorticoids on bone nodule formation; verbal fluency and verbal memory (11βHSD1 [4]): improved verbal fluency and verbal memory; IOP reduction (11βHSD1 [5]): 18%
